What all share (conditions): read-out: % displacement at 10 μM
For assay [1], the target named is T1, cannabinoid receptor 1 (CB1R) (Mus musculus, UniProt P47746).
T1 construct: gene Cnr1; native receptor in mouse brain membranes
Kind of assay: [3H]CP55, […] competition radioligand binding, mouse brain membranes, […].

The target of assay [2] is T1, cannabinoid receptor 1 (CB1R). Kind of assay: [3H]CP55, […] competition radioligand binding, mouse brain membranes, […] (weak).
Assay [3] has the same target. The experiment in a line: [3H]CP55, […] competition radioligand binding, mouse brain membranes, […] (positive control).

T1 sequence (P47746 whole entry): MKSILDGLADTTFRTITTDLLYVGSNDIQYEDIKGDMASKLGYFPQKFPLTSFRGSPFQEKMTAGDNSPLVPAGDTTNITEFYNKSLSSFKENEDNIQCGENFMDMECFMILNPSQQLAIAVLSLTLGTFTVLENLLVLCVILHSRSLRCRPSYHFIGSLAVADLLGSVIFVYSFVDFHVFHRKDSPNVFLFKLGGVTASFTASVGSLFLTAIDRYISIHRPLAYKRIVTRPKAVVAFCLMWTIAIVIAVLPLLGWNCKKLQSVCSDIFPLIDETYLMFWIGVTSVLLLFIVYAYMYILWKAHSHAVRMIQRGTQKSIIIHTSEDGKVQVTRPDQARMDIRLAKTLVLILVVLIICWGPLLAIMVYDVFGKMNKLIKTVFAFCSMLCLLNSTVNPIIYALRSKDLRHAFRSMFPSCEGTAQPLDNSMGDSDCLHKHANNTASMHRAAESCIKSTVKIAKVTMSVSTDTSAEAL

For the compound `CN(Cc1cnc2nc(N)nc(N)c2n1)c1ccc(C(=O)N[C@@H](CCC(=O)O)C(=O)O)cc1` [Methotrexate], the inhibition at 10 µM in assay [1] is about 50%.

Regarding `CCCCCCCCCCCCCCCCOP(=O)([O-])OCC[N+](C)(C)C` [Miltefosine], in assay [1], the inhibition at 10 µM is about 60%.

Consider `COc1ccc(CN=c2[nH]c(N3CCC[C@H]3CO)ncc2C(=O)NCc2ncccn2)cc1Cl` [Avanafil], for which the inhibition at 10 µM in assay [2] is about 30%.

`Cc1nnc(C(=O)NC(C)(C)c2nc(C(=O)NCc3ccc(F)cc3)c(O)c(=O)n2C)o1` [Raltegravir]: in assay [1], the inhibition at 10 µM was about 80%.

Take `CCCCC(=O)N(Cc1ccc(-c2ccccc2-c2nnn[nH]2)cc1)[C@H](C(=O)O)C(C)C` [Valsartan]: the inhibition at 10 µM in assay [2] is about 30%.

`O=C(c1ccc(OCCN2CCCCC2)cc1)c1c(-c2ccc(O)cc2)sc2cc(O)ccc12` [Raloxifene]: in assay [3], the inhibition at 10 µM is over 50%.

For `COC(=O)N(C)c1c(N)nc(-c2nn(Cc3ccccc3F)c3ncccc23)nc1N` [Riociguat], the inhibition at 10 µM in assay [2] was about 20%.

In the case of `Nc1nc(N)c2nc(CNc3ccc(C(=O)N[C@@H](CCC(=O)O)C(=O)O)cc3)cnc2n1` [APGA, Aminopterin], in assay [2], the inhibition at 10 µM is about 30%.

The record behind these values is publication PMC10747202, “Computational and Experimental Drug Repurposing of FDA-Approved Compounds Targeting the Cannabinoid Receptor CB1” (Pharmaceuticals, 2023).
